IC50 data for 22 compounds are collected here from BindingDB's records for patent US9120808 (Nabriva Therapeutics, 2015).

pIC50: −log10 of the molar value. “And” between values parts separate entries of the source, which are not always exact repeats. Equal entries are not always repeated.

Chain of Beta-lactamase TEM (P62593 whole entry): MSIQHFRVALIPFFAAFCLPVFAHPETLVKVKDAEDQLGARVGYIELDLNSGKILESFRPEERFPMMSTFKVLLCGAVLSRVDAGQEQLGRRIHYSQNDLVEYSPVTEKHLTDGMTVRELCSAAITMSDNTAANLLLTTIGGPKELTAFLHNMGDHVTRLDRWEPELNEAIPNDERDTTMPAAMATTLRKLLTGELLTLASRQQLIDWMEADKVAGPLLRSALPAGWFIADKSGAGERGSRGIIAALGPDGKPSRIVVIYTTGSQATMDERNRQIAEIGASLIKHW

For the first experiment, the target named is Beta-lactamase (Escherichia coli (strain K12), UniProt P00811). The experiment can be described thus: Cell Free Inhibition Assay. Particulars: pH 7; 37 °C. How it is done: (§1) Assays are performed with beta -lactamases expressed in the pET system (Novagen, San Diego, Calif.) without signal peptides. They contain an N-terminal hexa-Histidine tag that is used for purification on Ni-NTA (Qiagen, Hilden, Germany). The compounds are prepared as 50 mM stocks in DMSO and diluted into buffer P1 (50 mM phosphate, pH 7) to a final concentration of 10% DMSO. All further dilutions are done in P2 (P1 with 10% DMSO). Enzyme and compound dilutions are pre-incubated for 10 min at 37 C. and the reaction is started with the addition of pre-warmed (37 C.) […]. The change in absorption at 490 nm is followed at 37 C. for 10 min with 30 s intervals.
Chain of Beta-lactamase (P00811 whole entry): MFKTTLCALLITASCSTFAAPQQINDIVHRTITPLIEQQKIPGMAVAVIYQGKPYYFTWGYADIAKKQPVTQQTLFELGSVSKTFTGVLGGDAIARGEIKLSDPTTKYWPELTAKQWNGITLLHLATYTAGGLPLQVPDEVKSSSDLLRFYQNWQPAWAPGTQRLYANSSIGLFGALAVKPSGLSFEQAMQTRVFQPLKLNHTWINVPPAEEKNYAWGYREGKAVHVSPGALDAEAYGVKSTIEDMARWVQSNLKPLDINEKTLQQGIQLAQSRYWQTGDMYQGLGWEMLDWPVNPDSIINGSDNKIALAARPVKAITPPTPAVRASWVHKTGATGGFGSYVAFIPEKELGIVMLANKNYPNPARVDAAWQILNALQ
As to `C=CCC(C=O)=C1O[C@@H]2CC(=O)N2C1(CC=C)C(=O)OCc1ccccc1` (some centres not stated) [US9120808, Example 3], the negative logarithm of the IC50 (pIC50) was 4.02.

Consider `COC(=O)C1C(=C(CCCc2ccccc2)C(=O)O)O[C@@H]2CC(=O)N12` (some centres not stated) [US9120808, Example 53], for which the pIC50 was 6.27. Compared with the last compound, the pIC50 is 2.25 log units higher.

For `O=CC=C1O[C@@H]2CC(=O)N2C1(CC=CCO)C(=O)OCc1ccccc1` (single isomer, unassigned) [US9120808, Example 9], the pIC50 is 3.94 and 4.85.

Compound `O=C(O)C(CC=CCN(Cc1ccccc1)C(=O)OCc1ccccc1)=C1O[C@@H]2CC(=O)N2C1C(=O)OCc1ccccc1` (some centres not stated) [US9120808, Example 58] showed a pIC50 of 5.35.

Turning to `COC(=O)C1(C/C=C/c2ccccc2)C(=CC(=O)O)O[C@@H]2CC(=O)N21` (single isomer, unassigned) [US9120808, Example 36], the pIC50 was 4.39 and 5.38.

Regarding `O=C1OC(CI)CC1=C1O[C@@H]2CC(=O)N2C1C(=O)OCc1ccccc1` (single isomer, unassigned) [US9120808, Example 42], the pIC50 is 6.54 and 6.41.

For the compound `O=CC(CC=CCO)=C1O[C@@H]2CC(=O)N2C1C(=O)OCc1ccccc1` (some centres not stated) [US9120808, Example 7], the pIC50 is 5.27.

In turn, `CC(=O)OCC=CCC(C=O)=C1O[C@@H]2CC(=O)N2C1C(=O)OCc1ccccc1` (some centres not stated) [US9120808, Example 10] had a pIC50 of 4.79. Against the preceding compound, the pIC50 is 0.48 log units lower.

The compound `C=CCC(C(=O)O)=C1O[C@@H]2CC(=O)N2C1C(=O)OC` (some centres not stated) [US9120808, Example 32] gave a pIC50 of 5.54.

On to `C=CCC(C=O)=C1O[C@@H]2CC(=O)N2C1C(=O)OCc1ccccc1` (some centres not stated) [US9120808, Example 1], for which the pIC50 is 4.98.

On to `O=C(OCc1ccccc1)C1C(=C2COC(CI)C2)O[C@@H]2CC(=O)N12` (some centres not stated) [US9120808, Example 59], for which the pIC50 was 5.19. Compared with the last compound, the pIC50 is 0.21 log units higher.

In turn, `CCCC(C(=O)O)=C1O[C@@H]2CC(=O)N2C1C(=O)O` (some centres not stated) [US9120808, Example 51] showed a pIC50 of 3.38.

`CCCC(C(=O)O)=C1O[C@@H]2CC(=O)N2C1C(=O)OC` (some centres not stated) [US9120808, Example 54] showed a pIC50 of 5.47.

Regarding `O=C(O)C=C1O[C@@H]2CC(=O)N2C1(C/C=C/c1ccccc1)C(=O)OCc1ccccc1` (single isomer, unassigned) [US9120808, Example 28], the pIC50 was 5.22 and 4.93.

Turning to `C=CCC(C=O)=C1O[C@@H]2CC(=O)N2C1C(=O)OC` (some centres not stated) [US9120808, Example 16], the pIC50 was 6.03.

For the compound `CC1CC(=C2O[C@@H]3CC(=O)N3C2C(=O)O)C(=O)O1` (some centres not stated) [US9120808, Example 50], the pIC50 is 4.57.

Compound `C=CCC1(C(=O)OC)C(=CC=O)O[C@@H]2CC(=O)N21` (some centres not stated) [US9120808, Example 17] gave a pIC50 of 4.44.

In the case of `C=CCC1(C(=O)OCc2ccccc2)C(=CC=O)O[C@@H]2CC(=O)N21` (some centres not stated) [US9120808, Example 2], the negative logarithm of the IC50 (pIC50) was 4.23.

`COC(=O)C(CCCc1ccccc1)=C1O[C@@H]2CC(=O)N2C1C(=O)OC` (some centres not stated) [US9120808, Example 57] showed a pIC50 of 5.27.

Compound `C=CCC(C(=O)O)=C1O[C@@H]2CC(=O)N2C1C(=O)OCc1ccccc1` (some centres not stated) [US9120808, Example 24] had a pIC50 of 5.30.

A further experiment has as its target Beta-lactamase TEM (Escherichia coli, UniProt P62593). The experiment can be described thus: Cell Free Inhibition Assay. Particulars: pH 7; 37 °C. As for the experimental part:
as §1
With `CCCC(CO)=C1O[C@@H]2CC(=O)N2C1C(=O)O` (some centres not stated) [US9120808, Example 55], the pIC50 was 3.93.

With `CCCC1(C(=O)O)/C(=C/CO)O[C@@H]2CC(=O)N21` (some centres not stated) [US9120808, Example 56], the pIC50 was 4.75. This pIC50 lies 0.82 log units higher than the previous one.
